In US20230136562A1, “SPIROUREA DERIVATIVES” (Idorsia Pharmaceuticals Ltd, priority 2020, published 2023):
Like-named read-outs stand apart in the source and are kept apart here.

Test system: primary neuronal cultures from embryonic rat brains
Experiment: Rat oscillation assay (FLIPR, neuronal calcium oscillations)
Assay type: cell-based
Conditions: Rattus norvegicus
Procedure: A) Rat Oscillation Assay:
This assay is a functional phenotypic assay designed to mimic epileptic seizures using primary neuronal cultures from embryonic rat brains, which form a functional neuronal network that generate synchronized intracellular calcium concentration oscillations when cultured at high density in 384-well plate. The epileptic phenotype is induced by incubating the neurons in magnesium-free assay buffer, that results in increased probability of NMDA receptor activation, leading to an increased frequency and amplitude of intracellular calcium oscillations. Once neurons are incubated with the calcium indicator dye Fluo-8 AM (Tebu-bio), neuronal calcium oscillations can be monitored in real time using FLIPR® Tetra (fluorometric plate reader, Molecular Devices). With these recordings, the effect of anti-epileptic drugs can be quantified. The anti-epileptic effect of compounds, which activate directly or indirectly the Kv7 channels can be modulated by the Kv7 channel blocker XE-991. The assay was performed as described previously (Pacico N, Mingorance-Le Meur A. New In Vitro Phenotypic Assay for Epilepsy: Fluorescent Measurement of Synchronized Neuronal Calcium Oscillations. PLoS ONE 9(1) 2014) with modifications described hereafter.
Animal care followed standard procedures in accordance with swiss institutional guidelines. Dissociated neuronal cultures were obtained from cerebral cortices of embryonic Wistar rats at embryonic stage E18 (Charles River). The uterine horns were removed by caesarian surgery from deeply anesthetized rats (Isofurane) and sacrificed by decapitation. The embryos were decapitated by closing forceps. The brains were isolated and dissected one by one in ice-cold PBS (Life Technologies) under optical control using a binocular. Meninges, olfactory bulbs, and basal ganglia were removed. Cortical hemispheres (still including the hippocampus) were cut in small pieces with tweezers and placed on ice in pre-chilled Hibernate-E medium (Life technology). The hemispheres were then incubated in 10 mL of Hibernate-E containing 15 U/mL papain (Worthington) for 25 min at 30° C. with gentle mixing every 10 min. Genomic DNA was then digested by prolonging the incubation during 10 min at 37° C. in presence of 4 U/mL rDNase I (Ambion). The obtained suspension was then centrifuged at 800 g for 5 min and the cell pellet was resuspended in 2 mL Hibernate-E and gently dissociated by pipetting up and down 10 times with a plastic Pasteur pipette resulting in a homogenous cell suspension. This suspension was immediately filtered through a 70 µm cell strainer (MACS® SmartStrainer, Miltenyi), collected in 10 mL Hibernate-E and centrifuged at 800 g for 5 min. The cell pellet was resuspended in Neurobasal medium, supplemented with 2% B-27, 0.5 mM Glutamax-I, 100 U/mL penicillin, 100 µg/mL streptomycin (Life Technologies) and diluted at the final concentration of 300′000 cells/mL. One day before plating the cells, 384-well plates were coated with 25 μL/well of 0.1% poly-L-lysine solution (Sigma), incubated overnight at 37° C., washed two times with sterile distilled water and allowed to dry at room temperature for >2 h. The neurons were seeded at a density of 15′000 cells/well in 50 μL/well in a 384-well black, clear-bottomed plates (Corning) and subsequently maintained in an incubator at 37° C., 5% CO2 and 95% humidity for 8 to 10 days. After 3 and 7 days, 40% of media was renewed under sterile conditions.
Protocol Rat Oscillation Assay
Neurons seeded in the assay plates were washed with Hank's balanced salt solution (HBSS) devoid of Ca^2+ and Mg^2+, supplemented with 20 mM HEPES (Life Technologies) and 2 mM CaCl2 (Sigma), pH 7.4 (hereafter called Assay buffer) using a Biotek EL406 plate washer. Neurons were loaded with 1 μM Fluo-8 AM in Assay buffer for 15 min at 37° C., 5% CO2. […]

[1] = 20 min, AUC of fluorescence measured 20 min after compound addition, read-out: FLIPR: IC50 [nM] 20 min
[2] = Acute phase, ratio of AUC fluorescence before and after compound addition, read-out: FLIPR: IC50 [nM] acute

Row | SMILES | IC50 [1] | IC50 [2]
1 | C[C@H](NC(=O)NC1CC2(CC2)C1)c1ccnc(OC(F)F)c1 (single isomer, unassigned) [Example 189] | 196 nM | 221 nM
2 | COc1ccc(C(F)(F)F)cc1C(C)NC(=O)NC1CC2(CCC2)C1 (racemic) [Example 20, (±)-1-[1-(2-Methoxy-5-trifluoromethyl-phenyl)-ethyl]-3-spiro[3.3]hept-2-yl-urea] | 304 nM | 508 nM
3 | O=C(NC1CC2(CCC2)C1)N[C@@H](CO)c1cccc(C(F)(F)F)c1 (single isomer, unassigned) [Example 184] | 5.7 nM | 8.8 nM
4 | O=C(NC1CC2(CC2)C1)NC1(c2cccc(OC(F)F)c2)CC1 [Example 136, 1-[1-(3-Difluoromethoxy-phenyl)-cyclopropyl]-3-spiro[2.3]hex-5-yl-urea] | 386 nM | 334 nM
5 | COCC(c1ccnc(OCC(F)(F)F)c1)N(C)C(=O)NC1CC2(CCC2)C1 (racemic) [Example 50, (±)-1-{2-Methoxy-1-[2-(2,2,2-trifluoro-ethoxy)-pyridin-4-yl]-ethyl}-1-methyl-3-spiro[3.3]hept-2-yl-urea] | 118 nM | 80 nM
6 | CN(CC(F)(F)F)c1cc(CNC(=O)NC2CC3(CCC3)C2)ccn1 [Example 115, 1-{2-[Methyl-(2,2,2-trifluoro-ethyl)-amino]-pyridin-4-ylmethyl}-3-spiro[3.3]hept-2-yl-urea] | 241 nM | 185 nM
7 | CC(NC(=O)NC1CC2(CC2)C1)c1cc(OCC(F)(F)F)ccc1F (racemic) [Example 129, (±)-1-{1-[2-Fluoro-5-(2,2,2-trifluoro-ethoxy)-phenyl]-ethyl}-3-spiro[2.3]hex-5-yl-urea] | 254 nM | 212 nM
8 | O=C(NCc1cccc(OC(F)(F)F)c1F)NC1CC2(CCC2)C1 [Example 8, 1-(2-Fluoro-3-trifluoromethoxy-benzyl)-3-spiro[3.3]hept-2-yl-urea] | 35 nM | 78 nM
9 | CC(NC(=O)NC1CC2(CC2)C1)c1cc(OCC(F)(F)F)ncn1 (racemic) [Example 144, (±)-1-Spiro[2.3]hex-5-yl-3-{1-[6-(2,2,2-trifluoro-ethoxy)-pyrimidin-4-yl]-ethyl}-urea] | 119 nM | 96 nM
10 | O=C(NCc1ccnc(OC(F)(F)F)c1)NC1CC2(CCC2)C1 [Example 96, 1-Spiro[3.3]hept-2-yl-3-(2-trifluoromethoxy-pyridin-4-ylmethyl)-urea] | 61 nM | 82 nM
11 | CNC(=O)C(NC(=O)NC1CC2(CCC2)C1)c1cccc(C(F)(F)F)c1 (racemic) [Example 63, (±)-N-Methyl-2-(3-spiro[3.3]hept-2-yl-ureido)-2-(3-trifluoromethyl-phenyl)-acetamide] | 92 nM | 46 nM
12 | CC(NC(=O)NC1CC2(CCC2)C1)c1ccc2c(c1)OC(F)(F)O2 (racemic) [Example 65, (±)-1-[1-(2,2-Difluoro-benzo[1,3]dioxol-5-yl)-ethyl]-3-spiro[3.3]hept-2-yl-urea] | 10 nM | 6.7 nM
13 | COCC(NC(=O)NC1CC2(CCC2)C1)c1cccc(OCC(F)(F)F)c1 (racemic) [Example 91, (±)-1-{2-Methoxy-1-[3-(2,2,2-trifluoro-ethoxy)-phenyl]-ethyl}-3-spiro[3.3]hept-2-yl-urea] | 1.4 nM | 3.4 nM
14 | O=C(NC1CC2(CCC2)C1)NC(CO)c1cccc(OCC(F)(F)F)c1 (racemic) [Example 87, (±)-1-{2-Hydroxy-1-[3-(2,2,2-trifluoro-ethoxy)-phenyl]-ethyl}-3-spiro[3.3]hept-2-yl-urea] | 12 nM | 21 nM
15 | CC(NC(=O)NC1CC2(CCC2)C1)c1cc(Cl)cc(OCC(F)(F)F)c1 (racemic) [Example 33, (±)-1-{1-[3-Chloro-5-(2,2,2-trifluoro-ethoxy)-phenyl]-ethyl}-3-spiro[3.3]hept-2-yl-urea] | 65 nM | 80 nM
16 | NC(=O)CCC(NC(=O)NC1CC2(CCC2)C1)c1cccc(C(F)(F)F)c1 (racemic) [Example 79, (±)-4-(3-Spiro[3.3]hept-2-yl-ureido)-4-(3-trifluoromethyl-phenyl)-butyramide] | 634 nM | 599 nM
17 | CC(NC(=O)NC1CC2(CC2)C1)c1cccc2c1OC(F)(F)O2 (racemic) [Example 121, (±)-1-[1-(2,2-Difluoro-benzo[1,3]dioxol-4-yl)-ethyl]-3-spiro[2.3]hex-5-yl-urea] | 1210 nM | 990 nM
18 | O=C(NCc1cccc(OC(F)F)c1)NC1CC2(CCC2)C1 [Example 13, 1-(3-Difluoromethoxy-benzyl)-3-spiro[3.3]hept-2-yl-urea] | 133 nM | 88 nM
19 | O=C(NCc1cccc(S(F)(F)(F)(F)F)c1)NC1CC2(CC2)C1 [Example 130, 1-(3-(pentafluoro-λ^6-sulfaneyl)benzyl)-3-(spiro[2.3]hexan-5-yl)urea] | 42 nM | 30 nM
20 | O=C(NCc1cccc(OCC(F)(F)F)c1)NC1CC2(CCC2)C1 [Example 14, 1-Spiro[3.3]hept-2-yl-3-[3-(2,2,2-trifluoro-ethoxy)-benzyl]-urea] | 27 nM | 31 nM
21 | CC(NC(=O)NC1CC2(CCC2)C1)c1cccc(OCC(F)(F)F)c1 (racemic) [Example 90, (±)-1-Spiro[3.3]hept-2-yl-3-{1-[3-(2,2,2-trifluoro-ethoxy)-phenyl]-ethyl}-urea] | 2.7 nM | 4 nM
22 | O=C(NCc1cccc(OC(F)(F)F)c1)NC1CC2(CC2)C1 [Example 156, 1-Spiro[2.3]hex-5-yl-3-(3-trifluoromethoxy-benzyl)-urea] | 83 nM | 60 nM
23 | CC(Oc1cc(CNC(=O)NC2CC3(CC3)C2)ncn1)C(F)(F)F (racemic) [Example 120, (±)-1-Spiro[2.3]hex-5-yl-3-[6-(2,2,2-trifluoro-1-methyl-ethoxy)-pyrimidin-4-ylmethyl]-urea] | 151 nM | 136 nM
24 | COc1c(OCC(F)(F)F)ncnc1C(C)NC(=O)NC1CC2(CC2)C1 (racemic) [Example 152, (±)-1-{1-[5-Methoxy-6-(2,2,2-trifluoro-ethoxy)-pyrimidin-4-yl]-ethyl}-3-spiro[2.3]hex-5-yl-urea] | 532 nM | 520 nM
25 | CC(Oc1nccc(CNC(=O)NC2CC3(CCC3)C2)n1)C(F)(F)F (racemic) [Example 118, (±)-1-Spiro[3.3]hept-2-yl-3-[2-(2,2,2-trifluoro-1-methyl-ethoxy)-pyrimidin-4-ylmethyl]-urea] | 81 nM | 116 nM
26 | O=C(NC1CC2(CCC2)C1)NC(c1cccc(C(F)(F)F)c1)C(F)(F)F (stereo not shown) [Example 58, 1-Spiro[3.3]hept-2-yl-3-[2,2,2-trifluoro-1-(3-trifluoromethyl-phenyl)-ethyl]-urea] | 16 nM | 20 nM
27 | O=C(NCc1cccc(C(F)(F)F)c1)NC1CC2(C1)CC(F)(F)C2 [Example 6, 1-(6,6-Difluoro-spiro[3.3]hept-2-yl)-3-(3-trifluoromethyl-benzyl)-urea] | 112 nM | 62 nM
28 | Cc1ccc(C(C)NC(=O)NC2CC3(CCC3)C2)cc1OCC(F)(F)F (racemic) [Example 26, (±)-1-{1-[4-Methyl-3-(2,2,2-trifluoro-ethoxy)-phenyl]-ethyl}-3-spiro[3.3]hept-2-yl-urea] | 206 nM | 190 nM
29 | CC(NC(=O)NC1CC2(CCC2)C1)c1cc(OCC(F)(F)F)ncn1 (racemic) [Example 61, (±)-1-Spiro[3.3]hept-2-yl-3-{1-[6-(2,2,2-trifluoro-ethoxy)-pyrimidin-4-yl]-ethyl}-urea] | 25 nM | 14 nM
